Columns and labels:
Type in all cases: biochemical
b-Raf = b-Raf (Homo sapiens, UniProt P15056); assay: b-Raf kinase inhibition assay (IκBα substrate, 384-well plate); conditions: read-out: IC50 against b-Raf
Experimental: Compounds of the invention are tested for their ability to inhibit the activity of b-Raf. The assay is carried out in 384-well MaxiSorp plates (NUNC) with black walls and clear bottom. The substrate, IκBα is diluted in DPBS (1:750) and 15 μl is added to each well. The plates are incubated at 4° C. overnight and washed 3 times with TBST (25 mM Tris, pH 8.0, 150 mM NaCl and 0.05% Tween-20) using the EMBLA plate washer. Plates are blocked by Superblock (15 μl/well) for 3 hours at room temperature, washed 3 times with TBST and pat-dried. Assay buffer containing 20 μM ATP (10 μl) is added to each well followed by 100 nl or 500 nl of compound. B-Raf is diluted in the assay buffer (1 μl into 25 μl) and 10 μl of diluted b-Raf is added to each well (0.4 μg/well). The plates are incubated at room temperature for 2.5 hours. The kinase reaction is stopped by washing the plates 6 times with TBST. Phosph-IκBα (Ser32/36) antibody is diluted in Superblock (1:10,000) and 15 μl is added to each well. The plates are incubated at 4° C. overnight and washed 6 times with TBST. AP-conjugated goat-anti-mouse IgG is diluted in Superblock (1:1,500) and 15 μl is added to each well. Plates are incubated at room temperature for 1 hour and washed 6 times with TBST. […] Plates are read on Acquest or Analyst GT using a Fluorescence Intensity Nanxin BBT anion (505 dichroic mirror).

Abl = target: T1, Abl (Homo sapiens, UniProt P00519); assay: Upstate KinaseProfiler radio-enzymatic filter binding assay; conditions: at a concentration of 10 μM; 100% means complete inhibition; read-out: percentage inhibition of Abl
T1 construct: purchased Upstate (KinaseProfiler panel)
Experimental: (§1) Compounds of the invention are assessed for their ability to inhibit individual members of a panel of kinases (a partial, non-limiting list of kinases includes: Abl, BCR-Abl, EGF-R, c-erbB2 kinase (HER-2), PDGF-R, lck, SAPK2α, p38, TGFβ, KDR, c-Kit, b-RAF, c-RAF, FLTI and FLT4). The compounds are tested in duplicates at a final concentration of 10 μM following this generic protocol. Note that the kinase buffer composition and the substrates vary for the different kinases included in the “Upstate KinaseProfiler™” panel. Kinase buffer (2.5 μL, 10x—containing MnCl2 when required), active kinase (0.001-0.01 Units; 2.5 μL), specific or Poly(Glu4-Tyr) peptide (5-500 μM or .01mg/ml) in kinase buffer and kinase buffer ([…]; 5 μL) are mixed in an eppendorf on ice. A Mg/ATP mix (10 μL; 67.5 (or 33.75) mM MgCl2, 450 (or 225) μM ATP and 1 μCi/μl [γ-^32P]-ATP (3000 Ci/mmol)) is added and the reaction is incubated at about 30° C. for about 10 minutes. The reaction mixture is spotted (20 μL) onto a 2 cm×2 cm P81 (phosphocellulose, for positively charged peptide substrates) or Whatman No. 1 (for Poly (Glu4-Tyr) peptide substrate) paper square. The assay squares are washed 4 times, for 5 minutes each, with 0.75% phosphoric acid and washed once with acetone for 5 minutes. The assay squares are transferred to a scintillation vial, 5 ml scintillation cocktail are added and ^32P incorporation (cpm) to the peptide substrate is quantified with a Beckman scintillation counter. Percentage inhibition is calculated for each reaction.

Lck = target: T2, Lck (Homo sapiens, UniProt P06239); assay: as above; conditions: at a concentration of 10 μM; 100% means complete inhibition; read-out: percentage inhibition of Lck
T2 construct: purchased Upstate (KinaseProfiler panel)
Experimental: as §1

SAPK2α = target: T3, SAPK2α (Homo sapiens, UniProt Q16539); assay: as above; conditions: at a concentration of 10 μM; 100% means complete inhibition; read-out: percentage inhibition of SAPK2α
T3 construct: purchased Upstate (KinaseProfiler panel)
Experimental: as §1

c-RAF = target: T4, c-RAF (Homo sapiens, UniProt P04049); assay: as above; conditions: at a concentration of 10 μM; 100% means complete inhibition; read-out: percentage inhibition of c-RAF
T4 construct: purchased Upstate (KinaseProfiler panel)
Experimental: as §1

Sequence of b-Raf (P15056 whole entry): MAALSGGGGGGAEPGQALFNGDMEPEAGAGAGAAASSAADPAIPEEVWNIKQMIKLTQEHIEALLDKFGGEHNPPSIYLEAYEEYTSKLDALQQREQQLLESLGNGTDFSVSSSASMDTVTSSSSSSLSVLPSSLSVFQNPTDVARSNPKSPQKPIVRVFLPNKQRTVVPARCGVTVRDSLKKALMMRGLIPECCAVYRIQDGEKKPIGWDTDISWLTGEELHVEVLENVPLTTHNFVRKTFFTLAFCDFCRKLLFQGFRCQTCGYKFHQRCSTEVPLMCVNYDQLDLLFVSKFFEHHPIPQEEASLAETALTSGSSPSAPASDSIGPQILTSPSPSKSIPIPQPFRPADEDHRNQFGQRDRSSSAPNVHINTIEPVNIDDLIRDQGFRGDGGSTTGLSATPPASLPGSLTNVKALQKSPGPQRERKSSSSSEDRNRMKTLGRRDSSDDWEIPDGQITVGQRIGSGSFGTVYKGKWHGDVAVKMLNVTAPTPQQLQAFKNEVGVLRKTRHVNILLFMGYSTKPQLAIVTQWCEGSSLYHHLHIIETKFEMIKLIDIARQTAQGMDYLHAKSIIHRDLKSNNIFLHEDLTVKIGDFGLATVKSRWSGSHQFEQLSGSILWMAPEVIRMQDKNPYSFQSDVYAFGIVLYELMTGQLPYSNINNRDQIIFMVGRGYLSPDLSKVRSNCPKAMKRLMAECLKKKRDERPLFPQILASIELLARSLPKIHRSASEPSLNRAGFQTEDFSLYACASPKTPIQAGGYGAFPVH
T3 sequence (Q16539 whole entry): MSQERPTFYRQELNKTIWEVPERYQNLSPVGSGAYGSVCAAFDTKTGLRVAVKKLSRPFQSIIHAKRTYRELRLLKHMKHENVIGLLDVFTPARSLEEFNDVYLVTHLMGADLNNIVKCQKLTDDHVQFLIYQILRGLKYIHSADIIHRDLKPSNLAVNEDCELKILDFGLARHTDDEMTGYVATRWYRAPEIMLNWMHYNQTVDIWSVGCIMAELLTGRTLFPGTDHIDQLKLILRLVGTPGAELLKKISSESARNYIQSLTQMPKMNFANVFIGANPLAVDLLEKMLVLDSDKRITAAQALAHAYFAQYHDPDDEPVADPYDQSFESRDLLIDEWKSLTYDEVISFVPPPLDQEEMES
T1 sequence (P00519 whole entry, species assumed): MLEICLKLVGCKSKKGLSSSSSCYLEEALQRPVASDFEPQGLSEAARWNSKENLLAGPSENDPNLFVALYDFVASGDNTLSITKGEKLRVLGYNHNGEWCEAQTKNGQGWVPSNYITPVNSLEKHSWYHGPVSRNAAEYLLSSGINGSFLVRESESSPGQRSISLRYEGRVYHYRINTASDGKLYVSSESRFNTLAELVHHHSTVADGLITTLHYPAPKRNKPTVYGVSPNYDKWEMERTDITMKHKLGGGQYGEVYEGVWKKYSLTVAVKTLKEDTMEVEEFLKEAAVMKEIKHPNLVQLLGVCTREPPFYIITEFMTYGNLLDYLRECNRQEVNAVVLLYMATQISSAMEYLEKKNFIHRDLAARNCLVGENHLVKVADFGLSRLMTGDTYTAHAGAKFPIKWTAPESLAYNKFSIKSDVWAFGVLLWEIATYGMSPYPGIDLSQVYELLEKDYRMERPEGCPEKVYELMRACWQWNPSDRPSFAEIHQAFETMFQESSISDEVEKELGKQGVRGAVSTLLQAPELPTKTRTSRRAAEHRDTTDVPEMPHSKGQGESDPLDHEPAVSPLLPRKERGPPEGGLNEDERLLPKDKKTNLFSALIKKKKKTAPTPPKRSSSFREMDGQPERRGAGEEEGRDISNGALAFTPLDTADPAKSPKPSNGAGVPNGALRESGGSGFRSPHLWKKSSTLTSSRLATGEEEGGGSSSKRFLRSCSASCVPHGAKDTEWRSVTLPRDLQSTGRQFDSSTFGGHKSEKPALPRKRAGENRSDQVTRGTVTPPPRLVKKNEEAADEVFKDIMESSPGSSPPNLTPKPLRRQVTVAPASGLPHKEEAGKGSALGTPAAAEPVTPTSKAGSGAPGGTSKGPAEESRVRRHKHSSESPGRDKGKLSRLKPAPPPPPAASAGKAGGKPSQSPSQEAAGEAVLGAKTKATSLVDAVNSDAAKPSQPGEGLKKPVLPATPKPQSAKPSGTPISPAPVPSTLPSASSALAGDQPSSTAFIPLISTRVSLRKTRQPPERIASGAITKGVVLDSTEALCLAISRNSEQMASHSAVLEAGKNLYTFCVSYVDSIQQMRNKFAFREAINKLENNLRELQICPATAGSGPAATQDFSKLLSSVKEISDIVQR
T2 sequence (P06239 whole entry, species assumed): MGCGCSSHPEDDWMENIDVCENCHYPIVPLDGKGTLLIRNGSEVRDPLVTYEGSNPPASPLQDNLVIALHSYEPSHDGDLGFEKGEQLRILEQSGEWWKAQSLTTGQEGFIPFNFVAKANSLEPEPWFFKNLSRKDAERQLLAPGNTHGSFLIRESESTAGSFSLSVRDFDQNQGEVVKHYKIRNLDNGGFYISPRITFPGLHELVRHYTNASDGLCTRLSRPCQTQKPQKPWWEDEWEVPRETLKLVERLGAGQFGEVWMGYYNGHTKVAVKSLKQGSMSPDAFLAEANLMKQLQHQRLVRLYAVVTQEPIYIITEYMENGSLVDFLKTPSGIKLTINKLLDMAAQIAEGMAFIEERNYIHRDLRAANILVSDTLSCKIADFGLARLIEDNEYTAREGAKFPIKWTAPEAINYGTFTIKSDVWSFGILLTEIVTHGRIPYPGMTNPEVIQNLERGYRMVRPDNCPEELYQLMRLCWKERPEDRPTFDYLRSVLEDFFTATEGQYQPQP
T4 sequence (P04049 whole entry): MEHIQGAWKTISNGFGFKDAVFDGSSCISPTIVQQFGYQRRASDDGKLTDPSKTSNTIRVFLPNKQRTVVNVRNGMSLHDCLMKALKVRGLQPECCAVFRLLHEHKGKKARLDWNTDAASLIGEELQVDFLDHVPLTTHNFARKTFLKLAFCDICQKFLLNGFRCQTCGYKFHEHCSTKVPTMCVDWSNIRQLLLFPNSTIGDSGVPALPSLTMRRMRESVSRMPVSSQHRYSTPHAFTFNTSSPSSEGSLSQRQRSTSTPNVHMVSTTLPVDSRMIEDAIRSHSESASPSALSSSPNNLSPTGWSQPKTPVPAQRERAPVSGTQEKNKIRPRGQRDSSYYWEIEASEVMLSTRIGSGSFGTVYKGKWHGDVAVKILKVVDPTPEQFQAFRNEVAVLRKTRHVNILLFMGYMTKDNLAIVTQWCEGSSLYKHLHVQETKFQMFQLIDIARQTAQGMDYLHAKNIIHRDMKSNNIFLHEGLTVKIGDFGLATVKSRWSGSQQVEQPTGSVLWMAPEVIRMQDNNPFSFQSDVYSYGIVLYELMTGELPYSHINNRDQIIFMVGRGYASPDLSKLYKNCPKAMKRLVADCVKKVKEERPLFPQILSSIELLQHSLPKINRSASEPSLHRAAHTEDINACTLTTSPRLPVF

SMILES | IC50 (b-Raf) [nM] | inhibition at 10 µM (Abl) [%] | inhibition at 10 µM (Lck) [%] | inhibition at 10 µM (SAPK2α) [%] | inhibition at 10 µM (c-RAF) [%]
CN(C)c1ccc(NC(=O)Oc2ccc3cc(-c4nc(-c5ccccc5)[nH]c4-c4ccncc4)ccc3c2)cc1 [Compound 15, (4-dimethylamino-phenyl)-carbamic acid 6-(2-phenyl-5-pyridin-4-yl-1H-imidazol-4-yl)-naphthalen-2-yl ester] | 879 |  |  |  | 
Oc1ccc2cc(-c3nc(-c4ccccc4)[nH]c3-c3ccncc3)ccc2c1 [Compound 11, 6-(2-phenyl-5-pyridin-4-yl-1H-imidazol-4-yl)-naphthalen-2-ol] | 300 | 98 | 61 | 74 | 98

— US7569593B2, “Compounds and compositions as protein kinase inhibitors” (IRM LLC, priority 2003, dated 2009)
